Holding throughout (assay type): cell-based, human
In one assay the test system is WLS-1C and H1 cells. The assay is described as follows: Example 11: cloning efficiency with albumins of different suppliers with or without two free fatty acids. As to conditions: for cloning efficiency of albumin without the additional two free fatty acids: compared among suppliers' albumins; for cloning efficiency when albumin is provided along with two free fatty acids: versus the same albumin without added fatty acids.

The next assay concerns H1 and WLS-1C hPSCs. The experiment in a line: Example 12: cloning efficiency with individual free fatty acids in the presence of a carrier. To be noted: 600 μg free fatty acid per gram of carrier spiked into mTeSR1 plus 10 μM Y-27632. As for the experimental part:
12-well culture plates were coated with 0.5 mL of cloning matrix or extracellular matrix (1:25 dilution in […] Dilution Buffer) and placed at room temperature for 1 hour. The matrix was then aspirated and 1 mL of media (mTeSRTM1 or TeSRTM-E8TM supplemented with either 10 μM Y27632 or media comprising lipid-enriched albumin, GABA, pipecolic acid, lithium chloride, FGF, TGFβ and Y-27632 (hereafter termed cloning supplement)) was added to each well and the plate was placed at 37° C. for 1 hour. hPSC lines were dissociated to single cells and seeded into the pre-warmed plates at 25 cells/cm^2 and placed at 37° C. for two days. The cells were then fed with fresh media (mTeSRTM1 or TeSRTM-E8TM supplemented with either 10 μM Y-27632 or cloning supplement) and placed at 37° C. for two days. On day four the cells were then fed with 1 mL of mTeSRTM1 or TeSRTM-E8TM without additives and fed daily until day seven. Cells were then fixed using 4% paraformaldehyde and stained for alkaline phosphatase. Undifferentiated colonies were then counted and cloning efficiency was determined using the following calculation: (Number of undifferentiated colonies at day seven (per well)/Number of cells seeded at day zero (per well))×100. (Error bars represent standard deviation from three biological replicates). In this experiment, 600 μg of the shown free fatty acids were spiked into culture medium (mTeSRTM1 plus 10 μM Y-27632) per gram of carrier also spiked into the culture medium. Cloning efficiencies were calculated as described in Example 1, for example.

In assay [1] the test system is WLS-1C, H1 and STiPS-F016 cells. The experiment in a line: Example 8: cloning efficiency with lipid poor albumin loaded with one, two or three fatty acids. To be noted: for cloning efficiency in comparison to the 3 fatty acid-loaded albumin: H1, WLS-1C, STiPS-F016, fatty acid loaded on lipid poor albumin at 600 μg per gram, final 6 ng/mL. As for the experimental part: In particular, each of the one or more fatty acids was incubated with albumin at a concentration of 600 μg of each fatty acid per gram of albumin. The product of such incubation was subsequently added to the culture medium at a final concentration of 6 ng/mL.

A further assay has as its system H1, WLS-1C, and H9 hPSCs. The experiment in a line: Example 13: cloning efficiency with detrimental fatty acids loaded onto a BSA sample. To be noted: 300 μg/g loaded onto a specific BSA sample. On the procedure:
In the experiment shown in FIG. 13, 300 μg/g of either arachidonic acid or α-linolenic acid were loaded onto a specific BSA sample and added to a culture comprising H1, WLS-1C, and H9 hPSCs.

With “A1: BSA of Supplier A lot 1, already comprising 3000-7000 ug/g overall fatty acid”, in the assay with WLS-1C and H1 cells, the “cloning efficiency of albumin without the additional two free fatty acids” value is reported as “lowest cloning efficiencies” and the “cloning efficiency when albumin is provided along with two free fatty acids” value was “not enhanced”.
As to `CCCCCCCCCCCCCC(=O)O` [myristic acid], the “effect on survival and proliferation (cloning efficiency)” value (“effect on survival and proliferation” for short) with H1 and WLS-1C hPSCs was “helpful in enhancing the survival and proliferation”.
Regarding `CCCCC/C=C\C/C=C\CCCCCCCC(=O)O` [linoleic acid], the “cloning efficiency relative to control and oleic and/or palmitic acid” value in assay [1] (WLS-1C and H1, only this fatty acid loaded on albumin at 600 μg per gram) is “reduce cloning efficiency”.
Regarding `CCCCCCCCCCCCCCCCCC(=O)O` [stearic acid], the “effect on survival and proliferation” value in the assay with H1 and WLS-1C hPSCs was “helpful in enhancing the survival and proliferation”.
On to `CCCCCCCCCCCCCCCC(=O)O` [palmitic acid], for which the “effect on survival and proliferation” value with H1 and WLS-1C hPSCs was “helpful in enhancing the survival and proliferation”. For the same compound, the “cloning efficiency in comparison to the 3 fatty acid-loaded albumin” value in assay [1] is listed as “comparable cloning efficiencies”.
For `CCCCC/C=C\C/C=C\C/C=C\C/C=C\CCCC(=O)O` [arachidonic acid], the “effect on survival and proliferation” value with H1 and WLS-1C hPSCs is on record as “detrimental”. Moreover, the “cloning efficiency of the tested BSA sample” value in the assay with H1, WLS-1C, and H9 hPSCs is given as “decreased the cloning efficiency”.
For `CC(C)CCC[C@@H](C)[C@H]1CC[C@H]2[C@@H]3CC=C4C[C@@H](O)CC[C@]4(C)[C@H]3CC[C@]12C` [cholesterol], in the assay on H1 and WLS-1C hPSCs, the “effect on survival and proliferation” value is “helpful in enhancing the survival and proliferation”.
`CC/C=C\C/C=C\C/C=C\CCCCCCCC(=O)O` [α-linolenic acid]: the “effect on survival and proliferation” value in the assay on H1 and WLS-1C hPSCs is listed as “detrimental”. Further, the “cloning efficiency of the tested BSA sample” value with H1, WLS-1C, and H9 hPSCs is reported as “decreased the cloning efficiency”.
With “A2: BSA of Supplier A lot 2, already comprising 3000-7000 ug/g overall fatty acid”, in the assay on WLS-1C and H1 cells, the “cloning efficiency of albumin without the additional two free fatty acids” value is “lowest cloning efficiencies” and the “cloning efficiency when albumin is provided along with two free fatty acids” value is reported as “not enhanced”.
Turning to `CCCCCCCC/C=C\CCCCCCCC(=O)O` [oleic acid], the “effect on survival and proliferation” value in the assay on H1 and WLS-1C hPSCs was “helpful in enhancing the survival and proliferation”. For the same compound, in assay [1], the “cloning efficiency in comparison to the 3 fatty acid-loaded albumin” value is listed as “comparable cloning efficiencies”.
